Assay results published in ChEMBL document CHEMBL1201862, “PubChem BioAssay data set” (2004).
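Grown in 96-well plates, cells were treated for 48 hours with each compound at five concentrations. Insufficient inhibition: endpoint recorded as highest concentration tested. At the GI50, growth is halved.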 Active and inactive are the calls of the source. No stated cut-off is given here; in the data, active = GI50 up to about 1.1 µM and inactive = higher.

Key:
Assay in all cases: NCI tumour cell line growth inhibition, 48 h
OVCAR-3 = test system: OVCAR-3
SK-MEL-2 = test system: SK-MEL-2
SNB-75 = test system: SNB-75
NCI-H460 = test system: NCI-H460
SF-268 = test system: SF-268
NCI-H23 = test system: NCI-H23
OVCAR-8 = test system: OVCAR-8
PC-3 = test system: PC-3
BT-549 = test system: BT-549
786-0 = test system: 786-0
MDA-MB-231 = test system: MDA-MB-231
COLO 205 = test system: COLO 205
SK-OV-3 = test system: SK-OV-3
IGROV-1 = test system: IGROV-1
HOP-92 = test system: HOP-92
A549 = test system: A549
HCC 2998 = test system: HCC 2998
SK-MEL-28 = test system: SK-MEL-28
MDA-MB-435 = test system: MDA-MB-435
SNB-19 = test system: SNB-19

| SMILES | GI50 (OVCAR-3) | GI50 (SK-MEL-2) | GI50 (SNB-75) | GI50 (NCI-H460) | GI50 (SF-268) | GI50 (NCI-H23) | GI50 (OVCAR-8) | GI50 (PC-3) | GI50 (BT-549) | GI50 (786-0) | GI50 (MDA-MB-231) | GI50 (COLO 205) | GI50 (SK-OV-3) | GI50 (IGROV-1) | GI50 (HOP-92) | GI50 (A549) | GI50 (HCC 2998) | GI50 (SK-MEL-28) | GI50 (MDA-MB-435) | GI50 (SNB-19) |
| --- | --- | --- | --- | --- | --- | --- | --- | --- | --- | --- | --- | --- | --- | --- | --- | --- | --- | --- | --- | --- |
| CCCCCCCCCCCC[C@@H](O)[C@H]1CC[C@H]([C@H](O)CCCC[C@H](O)CCCCC[C@@H](O)CC2=C[C@H](C)OC2=O)O1 | 0.569 µM (active) | 0.867 µM (active) | 2.92 µM (inactive) | 2.07 µM (inactive) | 1.86 µM (inactive) | 0.034 µM (active) | 3.74 µM (inactive) | 1.53 µM (inactive) | 10 µM (inactive) | 2.82 µM (inactive) | 3.31 µM (inactive) | 1.75 µM (inactive) | 4.03 µM (inactive) | 0.61 µM (active) | 2.34 µM (inactive) | 1.29 µM (inactive) | 3.43 µM (inactive) | 2.8 µM (inactive) | 1.98 µM (inactive) | 2.83 µM (inactive) |
| O=C(Nc1ccc(Cl)cc1)c1cc(S(=O)(=O)Nc2nc3cccnc3[nH]2)c(SSc2cc(Cl)c(C(=O)Nc3ccc(Cl)cc3)cc2S(=O)(=O)Nc2nc3cccnc3[nH]2)cc1Cl | > 100 µM (inactive) | > 100 µM (inactive) | > 100 µM (inactive) | > 100 µM (inactive) | > 100 µM (inactive) | > 100 µM (inactive) | > 100 µM (inactive) | > 100 µM (inactive) | > 100 µM (inactive) | > 100 µM (inactive) | > 100 µM (inactive) | > 100 µM (inactive) | > 100 µM (inactive) | > 100 µM (inactive) | > 100 µM (inactive) | > 100 µM (inactive) | > 100 µM (inactive) | > 100 µM (inactive) | > 100 µM (inactive) | > 100 µM (inactive) |
| CCN(CC)CCC(=O)c1ccc(Oc2ccc(Cl)cc2)cc1 | 15.3 µM (inactive) | 14.5 µM (inactive) | 12 µM (inactive) | 14.7 µM (inactive) | 16.7 µM (inactive) | 17.2 µM (inactive) | 19.9 µM (inactive) | 15.1 µM (inactive) | 17 µM (inactive) | 14.9 µM (inactive) | 14.5 µM (inactive) | 24.3 µM (inactive) |  | 20.4 µM (inactive) | 16.2 µM (inactive) | > 100 µM (inactive) | 18.8 µM (inactive) | 17.7 µM (inactive) | 18.1 µM (inactive) | 30 µM (inactive) |
| CCOC(=O)OC1C(Br)C2CCC1(C)C2(C)C (stereo unspecified) | 14.7 µM (inactive) |  | 11.1 µM (inactive) | 4.79 µM (inactive) | 13.7 µM (inactive) | 17.2 µM (inactive) | 16 µM (inactive) | 11.3 µM (inactive) | 17.2 µM (inactive) | 14.1 µM (inactive) | 11.9 µM (inactive) | 13 µM (inactive) | 15.7 µM (inactive) | 18.7 µM (inactive) | 13.2 µM (inactive) | 16 µM (inactive) | 12.3 µM (inactive) | 15.7 µM (inactive) | 11.4 µM (inactive) | 14.6 µM (inactive) |
| O=C(OCC1CCCN2CCCCC12)c1cccnc1 (stereo unspecified) |  | > 100 µM (inactive) | > 100 µM (inactive) | > 100 µM (inactive) | > 100 µM (inactive) | > 100 µM (inactive) | > 100 µM (inactive) | > 100 µM (inactive) | > 100 µM (inactive) | > 100 µM (inactive) | > 100 µM (inactive) | > 100 µM (inactive) | > 100 µM (inactive) |  | > 100 µM (inactive) | > 100 µM (inactive) | > 100 µM (inactive) | > 100 µM (inactive) | > 100 µM (inactive) | > 100 µM (inactive) |
| CC1=C(C(=O)N(C(C)C)C(C)C)CC(C(=O)N(C(C)C)C(C)C)=C(C)N1 | > 100 µM (inactive) | > 100 µM (inactive) | 16.4 µM (inactive) | > 100 µM (inactive) | > 100 µM (inactive) | > 100 µM (inactive) | > 100 µM (inactive) | 96.6 µM (inactive) | > 100 µM (inactive) | > 100 µM (inactive) | 54.1 µM (inactive) | > 100 µM (inactive) | > 100 µM (inactive) | > 100 µM (inactive) | > 100 µM (inactive) | > 100 µM (inactive) | > 100 µM (inactive) |  | 79.8 µM (inactive) | > 100 µM (inactive) |
| Cc1ccsc1/C=N/Nc1nncc2ccccc12 | > 100 µM (inactive) | 14.1 µM (inactive) | > 100 µM (inactive) |  | 93.3 µM (inactive) | > 100 µM (inactive) | > 100 µM (inactive) | 34.3 µM (inactive) | > 100 µM (inactive) | 90.2 µM (inactive) | > 100 µM (inactive) | > 100 µM (inactive) | 70.6 µM (inactive) | 15.9 µM (inactive) | > 100 µM (inactive) | 96.4 µM (inactive) | > 100 µM (inactive) | > 100 µM (inactive) | > 100 µM (inactive) | > 100 µM (inactive) |
| CCCCCCCCCCCC[C@H](O)[C@H]1CC[C@H]([C@H](O)CCCC[C@H](O)CCCCC[C@@H](O)CC2=C[C@H](C)OC2=O)O1 | 2.19 µM (inactive) | 3.05 µM (inactive) | 4.99 µM (inactive) | 3.04 µM (inactive) | 3.33 µM (inactive) | 0.00415 µM (active) | 2.26 µM (inactive) | 3.1 µM (inactive) | 0.0026 µM (active) | 5.01 µM (inactive) | 1.88 µM (inactive) | 4.21 µM (inactive) |  | 3.98 µM (inactive) | 4.03 µM (inactive) | 2.34 µM (inactive) | 17.4 µM (inactive) | 4.51 µM (inactive) | 1.4 µM (inactive) | 1.13 µM (inactive) |
| COC(=O)c1nc2c3c(cccc3c1C(=O)OC)Nc1ccccc1-2 | 36.6 µM (inactive) | 28.1 µM (inactive) | 34.5 µM (inactive) | 25.7 µM (inactive) | 38.5 µM (inactive) | 36 µM (inactive) |  | 15.5 µM (inactive) | 43.2 µM (inactive) | 27.5 µM (inactive) | 23.8 µM (inactive) | 28.1 µM (inactive) | 24 µM (inactive) | 32 µM (inactive) | 16.9 µM (inactive) | 35.6 µM (inactive) | 42.3 µM (inactive) | 59.7 µM (inactive) | 83.6 µM (inactive) | 51.3 µM (inactive) |
| COC(=O)[C@]1(C)CCC[C@]2(C)[C@@H](CCC(=O)C(C)C)[C@]3(C=O)O[C@@H]3C[C@H]21 | 33.4 µM (inactive) | 34.1 µM (inactive) | 17.1 µM (inactive) | > 100 µM (inactive) | 44.1 µM (inactive) | 28.1 µM (inactive) | 39.4 µM (inactive) | 28.4 µM (inactive) | 24.7 µM (inactive) | 32.4 µM (inactive) | 52 µM (inactive) | 35 µM (inactive) | 35.6 µM (inactive) |  | 29.8 µM (inactive) | > 100 µM (inactive) | 58.6 µM (inactive) | > 100 µM (inactive) | 28.2 µM (inactive) | 37.2 µM (inactive) |
